Positions of bridges follow the written chain, without caps; N, C: chain ends. Residues, ends and D or L forms follow the SMILES beside them. No end group written: not given here.

In test [1] the test system is serum calcium concentration.
Procedure: Biological Assay Of Calcitonin Analogs In Vivo
Rats were divided into four groups of seven animals, and each group was assigned at random to a dose of standard or test solution. Low and high doses were chosen from the linear portion of the dose-response curve. For the salmon calcitonin standard, the values were 0.7 and 2.1 ng. peptide/100 g. body weight (BW). This dose approximates 3 and 9 MU/100 g. […] Peptides were given by subcutaneous injection (0.2 ml/100 g. BW) and blood was withdrawn 1 hour later for serum calcium determination. Sera are processed and analyzed within two hours of collection. Results were analyzed within two hours of collection.
For test [2] the following is noted: literature values, Monikawa et al.; cited from earlier work.

As for `CC(C)C[C@H](NC(=O)[C@H](CCCCN)NC(=O)CNC(=O)[C@H](CC(C)C)NC(=O)[C@@H](NC(=O)[C@@H]1CSSC[C@H](N)C(=O)N[C@@H](CO)C(=O)N[C@@H](CC(N)=O)C(=O)N[C@@H](CC(C)C)C(=O)N[C@@H](CO)C(=O)N[C@@H]([C@@H](C)O)C(=O)N1)C(C)C)C(=O)N[C@@H](CO)C(=O)N[C@@H](CCC(N)=O)C(=O)N[C@@H](CCC(=O)O)C(=O)N[C@@H](CC(C)C)C(=O)N[C@@H](Cc1c[nH]cn1)C(=O)N[C@@H](CCCCN)C(=O)N[C@@H](CC(C)C)C(=O)N[C@@H](CCC(N)=O)C(=O)N[C@H](C(=O)N[C@@H](Cc1ccc(O)cc1)C(=O)N1CCC[C@H]1C(=O)N[C@@H](CCCNC(=N)N)C(=O)N[C@H](C(=O)N[C@@H](CC(N)=O)C(=O)N[C@H](C(=O)NCC(=O)N[C@@H](CO)C(=O)NCC(=O)N[C@H](C(=O)N1CCC[C@H]1C(N)=O)[C@@H](C)O)[C@@H](C)O)[C@@H](C)O)[C@@H](C)O` [salmon calcitonin, Salmon calcitonin], the “potency of the standard salmon calcitonin used” value in test [1] (independently determined content of the standard) is listed as “greater than 4,000 IU/mg”.

In the case of `CC(C)C[C@H](NC(=O)CNC(=O)[C@@H]1CSSC[C@H](N)C(=O)N[C@@H](CO)C(=O)N[C@@H](CC(N)=O)C(=O)N[C@@H](CC(C)C)C(=O)N[C@@H](CO)C(=O)N[C@@H]([C@@H](C)O)C(=O)N1)C(=O)NCC(=O)N[C@@H](CCCCN)C(=O)N[C@@H](CC(C)C)C(=O)N[C@@H](CO)C(=O)N[C@@H](CCC(N)=O)C(=O)N[C@@H](CCC(=O)O)C(=O)N[C@@H](CC(C)C)C(=O)N[C@@H](Cc1c[nH]cn1)C(=O)N[C@@H](CCCCN)C(=O)N[C@@H](CCC(N)=O)C(=O)N[C@H](C(=O)N[C@@H](Cc1ccc(O)cc1)C(=O)N1CCC[C@H]1C(=O)N[C@@H](CCCNC(=N)N)C(=O)N[C@H](C(=O)N[C@@H](CC(N)=O)C(=O)N[C@H](C(=O)NCC(=O)N[C@@H](CO)C(=O)NCC(=O)N[C@H](C(=O)N1CCC[C@H]1C(N)=O)[C@@H](C)O)[C@@H](C)O)[C@@H](C)O)[C@@H](C)O` [Gly^8, des-Leu^19 -SCT, 8-glycine, des-19-leucine-salmon calcitonin] (H-CSNLSTCGLGKLSQELHKQTYPRTNTGSGTP-NH2; disulfide 1-7), the biological potency in test [1] (rat, in vivo, sc) is given as 11,400 IU/mg.

For the molecule “eel calcitonin (CSNLSTCVLGKLSQELHKLQTYPRTDVGAGTP; ends and bridges not checked; cysteine pairing not given here; UniProt P01262 1-32, looked up) [synthetic eel calcitonin, natural 32-amino-acid calcitonin peptide]”, in test [2], the hypocalcemic potency entry was “around 4300 IU/mg”.

(Values after patent US4746728A, “8-glycine, des-19-leucine-calcitonin” (Armour Pharmaceutical Company, priority 1986, dated 1988).)
